Results published in US20090215640A1, “METHODS FOR IDENTIFYING LIGANDS FOR STEM CELLS AND CELLS DERIVED THEREFROM” (priority 2005, published 2009).

Assays:
[1] = molecular target: T1, CRIP2 (also known as heart LIM protein (Hlp)) (Mus musculus, UniProt Q9DCT8); settings: Zhang et al., Circulation 2005; cited from earlier work
T1 sequence (Q9DCT8 1-208): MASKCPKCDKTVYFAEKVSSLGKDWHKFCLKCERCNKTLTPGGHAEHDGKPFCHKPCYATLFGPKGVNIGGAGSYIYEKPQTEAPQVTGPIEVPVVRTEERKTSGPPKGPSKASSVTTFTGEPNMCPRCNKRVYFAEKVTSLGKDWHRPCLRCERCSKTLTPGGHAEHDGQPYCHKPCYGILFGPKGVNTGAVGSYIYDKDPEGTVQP

[2] = tested on: hESCs; assay: Binding and internalization of mouse selected peptide phage into hESCs; assay type: cell-based, human; settings: subpopulation of hESCs
[3] = tested on: adult heart capillaries and endocardium; settings: Zhang et al., Circulation 2005; cited from earlier work

CRPPR*
Binding to CRIP2 [1]: binds to CRIP2
Binding and internalization into hESCs [2]: binds and internalizes into a subpopulation of hESCs
Binding to adult heart capillaries and endocardium [3]: known to bind to adult heart capillaries and endocardium
